≈ marks a conversion by molar mass, not a printed value. Where “and” joins values, the source holds several entries; their conditions need not be identical. Identical values can stand only once.
Assays:
staphylococcal biofilm = test system: staphylococcal biofilm; parameters: method as in ref 26, 51 = [26]; PMID 30087309; doi:10.3390/ijms19082318; 26. Pospisilova S. Kos J. Michnova H. Kapustikova I. Strharsky T. Oravec M. Moricz A.M. Bakonyi J. Kauerova T. Kollar P. Synthesis and spectrum of biological activities of novel N -arylcinnamamides In || [51]; 51. Pospisilova S. Kos J. Michnova H. Strharsky T. Cizek A. Jampilek J. N -Arylcinnamamides as antistaphylococcal agents Proceedings of the 4th International Electronic Conference on Medicinal Chemist; settings: cited from earlier work
M. tuberculosis H37Ra = test system: M. tuberculosis H37Ra; parameters: method as in ref 26 = [26]; PMID 30087309; doi:10.3390/ijms19082318; 26. Pospisilova S. Kos J. Michnova H. Kapustikova I. Strharsky T. Oravec M. Moricz A.M. Bakonyi J. Kauerova T. Kollar P. Synthesis and spectrum of biological activities of novel N -arylcinnamamides In; settings: average over the named compounds; cited from earlier work
S. aureus/MRSA [1] = test system: S. aureus/MRSA; parameters: method as in ref 26, 51 = [26]; PMID 30087309; doi:10.3390/ijms19082318; 26. Pospisilova S. Kos J. Michnova H. Kapustikova I. Strharsky T. Oravec M. Moricz A.M. Bakonyi J. Kauerova T. Kollar P. Synthesis and spectrum of biological activities of novel N -arylcinnamamides In || [51]; 51. Pospisilova S. Kos J. Michnova H. Strharsky T. Cizek A. Jampilek J. N -Arylcinnamamides as antistaphylococcal agents Proceedings of the 4th International Electronic Conference on Medicinal Chemist; settings: cited from earlier work
[2] = test system: vancomycin-resistant E. faecalis VRE 342B (VRE1); assay: MBC, agar aliquot subculture method; format: cell-based, Enterococcus faecalis
[3] = test system: vancomycin-resistant E. faecalis VRE 725B (VRE3); assay: MIC, microtitration broth method; format: cell-based, Enterococcus faecalis
[4] = test system: Enterococcus faecalis ATCC 29212; assay: MBC, agar aliquot subculture method; format: cell-based; settings: ATCC29212, E. faecalis reference strain
S. aureus/MRSA [5] = assay: Antistaphylococcal activity, summary over strains; format: cell-based, Staphylococcus aureus
M. smegmatis ATCC 700084 = assay: In vitro antimycobacterial evaluation (MIC); format: cell-based, Mycobacterium smegmatis; settings: Mycolicibacterium smegmatis, ATCC700084
[6] = test system: Staphylococcus aureus ATCC 29213; assay: MBC, agar aliquot subculture method; format: cell-based; settings: ATCC29213, S. aureus ATCC 29213
[7] = test system: vancomycin-resistant E. faecalis VRE 368 (VRE2); assay: MIC, microtitration broth method; format: cell-based, Enterococcus faecalis
[8] = Lipophilicity determination by RP-HPLC; format: physicochemical; settings: RP-HPLC, logarithm of capacity factor k
Method: It is evident from the graphs in Figure 1 that the correlation coefficients of the dependences of log k/log D6.5/log D7.4 have a value of r = 0.999 (n = 32), which means that the investigated compounds behave insignificantly differently in aqueous media with different pH. Moreover, lipophilicity was calculated as log P and Clog P using two prediction programs. […] Therefore, only log P values predicted by ACD/Percepta can be used for correlations with experimental values. These matches are shown in the graphs in Figure 2, and according to the correlation coefficient r~0.940 (n = 32), it can be argued that even the predicted lipophilicity values correlate with the experimentally measured ones. However, the largest variations were observed (no difference for series 1, 2) for compounds substituted with 2-Cl, 2-CF3, 2,5-Cl, 4-F, 4-CF3, and 3,5-F, 3,5-Cl. These are mainly substituents capable of forming hydrogen and other types of non-bonding interactions both with the surrounding environment and within the molecule. Overall, series 1 (3-CF3) is less lipophilic than series 2 (4-CF3), but the differences in the experimental data are insignificant. Unsubstituted derivatives 1a/2a are the least lipophilic compounds, while derivatives 1o/2o (3,5-Cl) and 1p/2p (3,5-CF3) are the most lipophilic compounds.
Experimental determination of lipophilicity values (log k, log D6.5, and log D7.4) was performed under the same conditions and on the same device as described by Strharsky et al..

S. aureus ATCC 29213 = assay: MTT assay, inhibition of bacterial respiration; format: cell-based, Staphylococcus aureus
Excerpt: The MTT assay can be used to assess cell growth by measuring respiration. Respiratory activity of bacterial cells (which is finally reflected in their viability) less than 70% after exposure to the MIC values for each tested compound is considered as a positive result of this assay. This low level of cell oxidative metabolism indicates inhibition of cell growth by inhibition of respiration. The lowest multiples of MIC values that achieved more than 70% inhibition of S. aureus ATCC 29213 viability (%) are shown in Table 3.
The percent inhibition of respiration of S. aureus ATCC 29213 was determined through the MTT assay. The assay was performed as described recently. The percent viability is calculated through the comparison of a measured value and that of the uninhibited control: % viability = OD570E/OD570P × 100, where OD570E is the reading from the compound-exposed cells, while OD570P is the reading from the uninhibited cells (positive control). Cytotoxic potential is determined by a percent viability of <70% [46, 47].

[9] = test system: vancomycin-resistant E. faecalis VRE 725B (VRE3); assay: MBC, agar aliquot subculture method; format: cell-based, Enterococcus faecalis
[10] = test system: Staphylococcus aureus ATCC 29213; assay: MIC, microtitration broth method; format: cell-based; settings: ATCC29213, S. aureus ATCC 29213
[11] = test system: methicillin-resistant S. aureus 63718 (MRSA3); assay: MBC, agar aliquot subculture method; format: cell-based; settings: Staphylococcus aureus; MRSA 63718
[12] = test system: methicillin-resistant S. aureus SA 630 (MRSA2); assay: MBC, agar aliquot subculture method; format: cell-based; settings: Staphylococcus aureus; MRSA SA 630
[13] = test system: Mycobacterium marinum CAMP 5644; assay: In vitro antimycobacterial evaluation (MIC); format: cell-based
[14] = test system: methicillin-resistant S. aureus 63718 (MRSA3); assay: MIC, microtitration broth method; format: cell-based; settings: Staphylococcus aureus; MRSA 63718
[15] = test system: methicillin-resistant S. aureus SA 3202 (MRSA1); assay: MIC, microtitration broth method; format: cell-based; settings: Staphylococcus aureus; MRSA SA 3202
[16] = test system: human monocytic leukemia cell line THP-1; assay: In vitro cell viability (cytotoxicity screening); format: cell-based; settings: 24 h, medium with 10% FBS, ± SD, n = 6
Method: The investigated anilides can be divided into three groups. […] Higher concentrations (than 10 or 30 µM) were not possible to evaluate due to precipitation of the tested compounds in water medium. Based on all these observations, it can be concluded that the high antimicrobial activity of 3,5-CF3-substituted compounds is associated with significant cytotoxic effect against eukaryotic cells. On the other hand, the other still effective compounds, especially agents 1j and 1o, have an insignificant toxic effect, which makes them interesting for further study.
Human monocytic leukemia THP-1 cells obtained from the European Collection of Cell Cultures (ECACC, Salisbury, UK) were used for in vitro antiproliferative assays. A recently described procedure was used.

E. faecalis/VRE = assay: Anti-enterococcal activity, summary over strains; format: cell-based, Enterococcus faecalis
[17] = test system: methicillin-resistant S. aureus SA 3202 (MRSA1); assay: MBC, agar aliquot subculture method; format: cell-based; settings: Staphylococcus aureus; MRSA SA 3202
[18] = test system: methicillin-resistant S. aureus SA 630 (MRSA2); assay: MIC, microtitration broth method; format: cell-based; settings: Staphylococcus aureus; MRSA SA 630
[19] = test system: M. smegmatis and M. marinum; assay: Antimycobacterial activity, summary over both strains; format: cell-based; settings: average over the named compounds and strains; read-out: average MIC against M. smegmatis and M. marinum
[20] = test system: vancomycin-resistant E. faecalis VRE 368 (VRE2); assay: MBC, agar aliquot subculture method; format: cell-based, Enterococcus faecalis
[21] = test system: Enterococcus faecalis ATCC 29212; assay: MIC, microtitration broth method; format: cell-based; settings: ATCC29212, E. faecalis reference strain
[22] = test system: vancomycin-resistant E. faecalis VRE 342B (VRE1); assay: MIC, microtitration broth method; format: cell-based, Enterococcus faecalis

For `O=C(/C=C/c1ccccc1)Nc1cccc(C(F)(F)F)c1` [3a], the “effect on staphylococcal biofilm” value (staphylococcal biofilm) is given as “ability to inhibit the growth of staphylococcal biofilm and disrupted mature biofilm in concentrations close to MICs”, the “average MIC against M. tuberculosis H37Ra” value (M. tuberculosis H37Ra) is given as ~ 24 µM and the bactericidal effect (S. aureus/MRSA [1]) is given as “bactericidal effect in concentrations close to MICs”.

Compound `O=C(/C=C/c1ccc(C(F)(F)F)cc1)Nc1cc(C(F)(F)F)cc(C(F)(F)F)c1` [2p, (2E)-N-[3,5-bis(Trifluoromethyl)phenyl]-3-[4-(trifluoromethyl)phenyl]prop-2-enamide] has an MBC [2] of 4.68 µM (≈ 2 µg/mL), an MIC [3] of 2.34 µM (≈ 1 µg/mL) and an MBC [4] of 4.68 µM (≈ 2 µg/mL). The MIC (S. aureus/MRSA [5]; Staphylococcus aureus, MRSA, average over the named compounds and strains, read-out: average MIC against S. aureus/MRSA) was about 1.4 µM (≈ 0.598 µg/mL), the “antistaphylococcal MICs/MBCs” value (S. aureus/MRSA [5]; range over S. aureus and MRSA isolates and over the named compounds) was 0.15 to 5.57 µM and 0.146 to 5.57 µM and the MIC (M. smegmatis ATCC 700084) was 1.17 µM (≈ 0.5 µg/mL). The MBC [6] was 0.146 µM (≈ 0.0624 µg/mL), the MIC [7] was 4.68 µM (≈ 2 µg/mL) and the log k [8] was 1.3665. The “Conc.: lowest multiple of MIC with at least 70% inhibition of respiratory activity” value (S. aureus ATCC 29213) was 2× MIC (2× MBC), the “Conc.: the same concentration as multiple of MBC” value (S. aureus ATCC 29213) was 2× MIC (2× MBC) and the MBC [9] was 2.34 µM (≈ 1 µg/mL). For the same compound, the MIC [10] was 0.146 µM (≈ 0.0624 µg/mL), the melting point was 207 to 209 °C and the MBC [11] was 0.293 µM (≈ 0.125 µg/mL). For the same compound, the MBC [12] was 0.585 µM (≈ 0.25 µg/mL), the “MIC MM” value ([13]; M. marinum CAMP 5644) was 0.293 – µM and the MIC ([13]; Mycobacterium marinum, CAMP5644, M. marinum CAMP 5644) was 0.29 to 22.2 µM (≈ 0.124 to 9.49 µg/mL). For the same compound, the MIC [14] was 0.293 µM (≈ 0.125 µg/mL), the MIC [15] was 0.585 µM (≈ 0.25 µg/mL) and the IC50 [16] was 8.9 ± 1.3 µM. The MIC (E. faecalis/VRE; Enterococcus faecalis, VRE, average over the named compounds and strains, read-out: average MIC against E. faecalis/VRE) was about 15 µM (≈ 6.41 µg/mL), the “anti-enterococcal MICs/MBCs” value (E. faecalis/VRE; range over E. faecalis and VRE isolates and over the named compounds) was 2.34 to 44.5 µM and the MBC [17] was 0.585 µM (≈ 0.25 µg/mL). The MIC [18] was 0.293 µM (≈ 0.125 µg/mL), the MIC [19] was about 4.1 µM (≈ 1.75 µg/mL) and the MBC [20] was 9.36 µM (≈ 4 µg/mL). It also gave an MIC [21] of 2.34 µM (≈ 1 µg/mL) and an MIC [22] of 2.34 µM (≈ 1 µg/mL).

— publication PMC9737391, “Trifluoromethylcinnamanilide Michael Acceptors for Treatment of Resistant Bacterial Infections” (International Journal of Molecular Sciences, 2022)
